pIC50: −log10 of the molar value.
Experiments:
Plasmodium falciparum [1] = test: microbe, parasite or virus in culture
Description: In vitro antiparasitic activity against chloroquine-resistant Plasmodium falciparum Indochina I

Plasmodium falciparum [2] = test: microbe, parasite or virus in culture; remark: listed apart in the source
Description: In vitro antiparasitic activity against chloroquine-sensitive Plasmodium falciparum Haiti 135

Calf thymus DNA = test: Binding affinity for calf thymus DNA by measuring the change in midpoint of the thermal denaturation curves; type: nucleic-acid assay; settings: Bos taurus
A549 = test: Cytotoxicity against human lung cell carcinoma A549 cell line; type: functional, cell-based
Nucleic Acid = test: Binding affinity for poly dA-dT DNA by measuring the change in midpoint of the thermal denaturation curves; type: nucleic-acid assay

Compound | pIC50 (Plasmodium falciparum [1]) | pIC50 (Plasmodium falciparum [2]) | ΔTm (Calf thymus DNA) | pIC50 (A549) | ΔTm (Nucleic Acid)
N=C(N)c1ccc(OCCCCCOc2ccc(C(=N)N)cc2)cc1 [PENTAMIDINE] | 7.35 | 7.82 | 11.1 °C | 4.40 | 20.6 °C
N=C(N)c1ccc(N2CCCN(c3ccc(C(=N)N)cc3)CC2)cc1 | 7.00 | 6.82 | 15 °C | < 3.69 | 23.1 °C
c1cc(N2CCN(c3ccc(C4OCCO4)cc3)CC2)ccc1C1OCCO1 | < 6.30 | < 6.30 | -1.2 °C |  | 0.1 °C
CCN(CC)CCCC(C)Nc1ccnc2cc(Cl)ccc12 (stereo unspecified) [CHLOROQUINE] |  |  |  | 4.40 | 
NNC(=O)c1ccc(N2CCN(c3ccc(C(=O)NN)cc3)CC2)cc1 | < 6.30 | < 6.30 | 0.1 °C |  | 0 °C
CCOC(=O)c1ccc(N2CCN(c3ccc(C(=O)OCC)cc3)CC2)cc1 | < 6.30 | < 6.30 | 0.6 °C |  | 0 °C
CN1CCN(C)C1c1ccc(N2CCN(c3ccc(C4N(C)CCN4C)cc3)CC2)cc1 | < 6.30 | < 6.30 | 2.4 °C |  | 1.8 °C
c1ccc(N2CCN(c3ccccc3)C2c2ccc(N3CCN(c4ccc(C5N(c6ccccc6)CCN5c5ccccc5)cc4)CC3)cc2)cc1 | < 6.30 | < 6.30 | -1.2 °C |  | 0 °C

Source: ChEMBL document CHEMBL1148453, “Parallel solution-phase synthesis of conformationally restricted congeners of pentamidine and evaluation of their antiplasmodial activities” (J Med Chem, 2004)
